Data: patent publication US12692238B2, “Substituted pyridazinone herbicides” (FMC CORPORATION, priority 2020, dated 2026)

Tests used:
Assay type in all cases: in vivo
[1] = system: redroot pigweed (Amaranthus retroflexus); test: Test A preemergence, redroot pigweed; settings: 0 to 100 scale, 10 days
Excerpt: (§1) Seeds of plant species selected from barnyardgrass (Echinochloa crus-galli), blackgrass (Alopecurus myosuroides), corn (Zea mays), foxtail, giant (giant foxtail, Setaria faberi), foxtail, green (green foxtail, Setaria viridis), goosegrass (Eleusine indica), kochia (Bassia scoparia), oat, wild (wild oat, Avena fatua), palmer amaranth (pigweed, palmer, Amaranthus palmeri), redroot pigweed (Amaranthus retroflexus), ragweed (common ragweed, Ambrosia artemisiifolia), ryegrass, Italian (Italian ryegrass, Lolium multiflorum), and soybean (Glycine max) were planted into a blend of loam soil and sand and treated preemergence with a directed soil spray using test chemicals formulated in a non-phytotoxic solvent mixture which included a surfactant.
(§2) At the same time, plants selected from these crop and weed species and also wheat (Triticum aestivum), galium (catchweed bedstraw, Galium aparine) and horseweed (Erigeron canadensis) were planted in pots containing the same blend of loam soil and sand and treated with postemergence applications of test chemicals formulated in the same manner. Plants ranged in height from 2 to 10 cm and were in the one- to two-leaf stage for the postemergence treatment. Treated plants and untreated controls were maintained in a greenhouse for 10 days, after which time all treated plants were compared to untreated controls and visually evaluated for injury. Plant response ratings, summarized in Table A, are based on a 0 to 100 scale where 0 is no effect and 100 is complete control. A dash (-) response means no test result.

[2] = system: galium (catchweed bedstraw, Galium aparine); test: Test A postemergence, galium; settings: 10 days
Excerpt: as §1, §2

[3] = system: redroot pigweed (Amaranthus retroflexus); test: Test A postemergence, redroot pigweed; settings: 10 days
Excerpt: as §1, §2

rice (Oryza sativa) = test: Test B flooded paddy test, rice; settings: 250 g ai/ha, Flood; visually evaluated after 10 to 14 days
Description: (§3) Plant species in the flooded paddy test selected from barnyardgrass (Echinochloa crus-galli), ducksalad (Heteranthera limosa), rice (Oryza sativa), and sedge, umbrella (small-flower umbrella sedge, Cyperus difformis) were grown to the 2-leaf stage for testing. At time of treatment, test pots were flooded to 3 cm above the soil surface, treated by application of test compounds directly to the paddy water, and then maintained at that water depth for the duration of the test. Treated plants and controls were maintained in a greenhouse for 10 to 14 days, after which time all species were compared to controls and visually evaluated. Plant response ratings, summarized in Table B, are based on a scale of 0 to 100 where 0 is no effect and 100 is complete control. A dash (-) response means no test result.

kochia (Bassia scoparia) [4] = test: Test A preemergence, kochia; settings: 0 to 100 scale, 10 days
Excerpt: as §1, §2

[5] = system: ducksalad (Heteranthera limosa); test: Test B flooded paddy test, ducksalad; settings: 250 g ai/ha, Flood; visually evaluated after 10 to 14 days
Description: as §3

[6] = system: sedge, umbrella (small-flower umbrella sedge, Cyperus difformis); test: Test B flooded paddy test, sedge, umbrella; settings: 250 g ai/ha, Flood; visually evaluated after 10 to 14 days
Description: as §3

[7] = system: barnyardgrass (Echinochloa crus-galli); test: Test A postemergence, barnyardgrass; settings: 10 days
Excerpt: as §1, §2

corn (Zea mays) = test: Test A postemergence, corn; settings: 10 days
Excerpt: as §1, §2

[8] = system: wheat (Triticum aestivum); test: Test A postemergence, wheat; settings: 10 days
Excerpt: as §1, §2

[9] = system: blackgrass (Alopecurus myosuroides); test: Test A postemergence, blackgrass; settings: 10 days
Excerpt: as §1, §2

[10] = system: ragweed (common ragweed, Ambrosia artemisiifolia); test: Test A preemergence, ragweed; settings: 0 to 100 scale, 10 days
Excerpt: as §1, §2

[11] = system: foxtail, giant (giant foxtail, Setaria faberi); test: Test A postemergence, foxtail, giant; settings: 10 days
Excerpt: as §1, §2

[12] = system: barnyardgrass (Echinochloa crus-galli); test: Test A preemergence, barnyardgrass; settings: 10 days
Excerpt: as §1, §2

[13] = system: ryegrass, Italian (Italian ryegrass, Lolium multiflorum); test: Test A preemergence, ryegrass, Italian; settings: 0 to 100 scale, 10 days
Excerpt: as §1, §2

[14] = system: ragweed (common ragweed, Ambrosia artemisiifolia); test: Test A postemergence, ragweed; settings: 10 days
Excerpt: as §1, §2

[15] = system: foxtail, giant (giant foxtail, Setaria faberi); test: Test A preemergence, foxtail, giant; settings: 0 to 100 scale, 10 days
Excerpt: as §1, §2

[16] = system: barnyardgrass (Echinochloa crus-galli); test: Test B flooded paddy test, barnyardgrass; settings: 250 g ai/ha, Flood; visually evaluated after 10 to 14 days
Description: as §3

kochia (Bassia scoparia) [17] = test: Test A postemergence, kochia; settings: 10 days
Excerpt: as §1, §2

[18] = system: ryegrass, Italian (Italian ryegrass, Lolium multiflorum); test: Test A postemergence, ryegrass, Italian; settings: 10 days
Excerpt: as §1, §2

[19] = 31 g ai/ha, postemergence, 0 to 100 scale (0 no effect, 100 complete control)
[20] = Postemergence, 125 g ai/ha, 0 to 100 scale
[21] = Postemergence, 31 g ai/ha, 0 to 100 scale
[22] = 125 g ai/ha, 0 to 100 scale (0 no effect, 100 complete control)

SMILES | Plant response rating, Pigweed, Redroot ([1]; 31 g ai/ha) | Plant response rating, Pigweed, Redroot ([1]; 125 g ai/ha) | Plant response rating, Galium [2, 19] | Plant response rating, Galium [2, 20] | Plant response rating, Pigweed, Redroot [3, 19] | Plant response rating, Pigweed, Redroot [3, 20] | Plant response rating, Rice (0 to 100 scale where 0 is no effect and 100 is complete control) (rice (Oryza sativa)) | Plant response rating, Kochia (kochia (Bassia scoparia) [4]; 31 g ai/ha) | Plant response rating, Kochia (kochia (Bassia scoparia) [4]; 125 g ai/ha) | Plant response rating, Ducksalad (0 to 100 scale where 0 is no effect and 100 is complete control) [5] | Plant response rating, Sedge, Umbrella (0 to 100 scale where 0 is no effect and 100 is complete control) [6] | Plant response rating, Barnyardgrass [7, 20] | Plant response rating, Corn (corn (Zea mays); [20]) | Plant response rating, Wheat [8, 19] | Plant response rating, Wheat [8, 20] | Plant response rating, Blackgrass [9, 20] | Plant response rating, Ragweed ([10]; 31 g ai/ha) | Plant response rating, Ragweed ([10]; 125 g ai/ha) | Plant response rating, Foxtail, Giant [11, 20] | Plant response rating, Barnyardgrass ([12]; 31 g ai/ha, 0 to 100 scale) | other results
CC(=O)OCOc1c(C)nn(C)c(=O)c1-c1c2ccccc2c(Br)c2ccccc12 [Compound 14] | 100 | 100 | 100 | 100 | 100 | 100 | 0 | 20 | 30 | 80 | 90 | 80 | 0 | 0 | 40 | 30 | 90 | 100 | 90 | 10 | Plant response rating, Barnyardgrass [7, 21]: 30; Plant response rating, Corn (corn (Zea mays); [21]): 0; Plant response rating, Blackgrass [9, 21]: 20; Plant response rating, Foxtail, Giant [11, 21]: 30; Plant response rating, Barnyardgrass [12, 22]: 80; Plant response rating, Ryegrass, Italian ([13]; 31 g ai/ha): 80; Plant response rating, Ryegrass, Italian ([13]; 125 g ai/ha): 100; Plant response rating, Ragweed [14, 19]: 90; Plant response rating, Ragweed [14, 20]: 100; Plant response rating, Foxtail, Giant ([15]; 31 g ai/ha): 60; Plant response rating, Foxtail, Giant ([15]; 125 g ai/ha): 100; Plant response rating, Barnyardgrass (0 to 100 scale where 0 is no effect and 100 is complete control) [16]: 20; Plant response rating, Kochia (kochia (Bassia scoparia) [17]; [19]): 30; Plant response rating, Kochia (kochia (Bassia scoparia) [17]; [20]): 60; Plant response rating, Ryegrass, Italian [18, 19]: 80; Plant response rating, Ryegrass, Italian [18, 20]: 100
CC(=O)OCOc1c(Cl)nn(C)c(=O)c1-c1c2cc(C)ccc2cc2ccc(C)cc12 [Compound 23] | 100 | 100 | 70 | 100 | 100 | 100 | 0 | 60 | 90 | 95 | 75 | 90 | 40 | 0 | 0 | 20 | 40 | 90 | 50 | 30 | Plant response rating, Barnyardgrass [7, 19]: 30; Plant response rating, Corn (corn (Zea mays); [19]): 0; Plant response rating, Blackgrass [9, 19]: 40; Plant response rating, Foxtail, Giant [11, 19]: 0; Plant response rating, Barnyardgrass [12, 22]: 80; Plant response rating, Ryegrass, Italian ([13]; 31 g ai/ha): 0; Plant response rating, Ryegrass, Italian ([13]; 125 g ai/ha): 0; Plant response rating, Ragweed [14, 19]: 70; Plant response rating, Ragweed [14, 20]: 100; Plant response rating, Foxtail, Giant ([15]; 31 g ai/ha): 0; Plant response rating, Foxtail, Giant ([15]; 125 g ai/ha): 20; Plant response rating, Barnyardgrass (0 to 100 scale where 0 is no effect and 100 is complete control) [16]: 60; Plant response rating, Kochia (kochia (Bassia scoparia) [17]; [19]): 20; Plant response rating, Kochia (kochia (Bassia scoparia) [17]; [20]): 80; Plant response rating, Ryegrass, Italian [18, 19]: 0; Plant response rating, Ryegrass, Italian [18, 20]: 40
COc1cc(OC)c2cc3ccc(F)cc3c(-c3c(OCOC(C)=O)c(C)nn(C)c3=O)c2c1 [Compound 25] | 0 | 30 | 50 | 60 | 80 | 90 | 0 | 0 | 0 | 0 | 0 | 10 | 20 | 0 | 0 | 10 | 0 | 0 | 20 | 0 | Plant response rating, Barnyardgrass [7, 19]: 0; Plant response rating, Corn (corn (Zea mays); [19]): 0; Plant response rating, Blackgrass [9, 19]: 0; Plant response rating, Foxtail, Giant [11, 19]: 0; Plant response rating, Barnyardgrass [12, 22]: 0; Plant response rating, Ryegrass, Italian ([13]; 31 g ai/ha): 0; Plant response rating, Ryegrass, Italian ([13]; 125 g ai/ha): 0; Plant response rating, Ragweed [14, 19]: 0; Plant response rating, Ragweed [14, 20]: 0; Plant response rating, Foxtail, Giant ([15]; 31 g ai/ha): 0; Plant response rating, Foxtail, Giant ([15]; 125 g ai/ha): 0; Plant response rating, Barnyardgrass (0 to 100 scale where 0 is no effect and 100 is complete control) [16]: 0; Plant response rating, Kochia (kochia (Bassia scoparia) [17]; [19]): 0; Plant response rating, Kochia (kochia (Bassia scoparia) [17]; [20]): 10; Plant response rating, Ryegrass, Italian [18, 19]: 0; Plant response rating, Ryegrass, Italian [18, 20]: 0
COc1ccc2cc3ccc(F)cc3c(-c3c(OCOC(C)=O)c(C)nn(C)c3=O)c2c1 [Compound 26] | 100 | 100 | 80 | 100 | 100 | 100 | 10 | 20 | 90 | 80 | 85 | 40 | 10 | 20 | 60 | 10 | 30 | 30 | 70 | 10 | Plant response rating, Barnyardgrass [7, 19]: 20; Plant response rating, Corn (corn (Zea mays); [19]): 0; Plant response rating, Blackgrass [9, 19]: 0; Plant response rating, Foxtail, Giant [11, 19]: 20; Plant response rating, Barnyardgrass [12, 22]: 70; Plant response rating, Ryegrass, Italian ([13]; 31 g ai/ha): 10; Plant response rating, Ryegrass, Italian ([13]; 125 g ai/ha): 90; Plant response rating, Ragweed [14, 19]: 90; Plant response rating, Ragweed [14, 20]: 100; Plant response rating, Foxtail, Giant ([15]; 31 g ai/ha): 20; Plant response rating, Foxtail, Giant ([15]; 125 g ai/ha): 90; Plant response rating, Barnyardgrass (0 to 100 scale where 0 is no effect and 100 is complete control) [16]: 60; Plant response rating, Kochia (kochia (Bassia scoparia) [17]; [19]): 40; Plant response rating, Kochia (kochia (Bassia scoparia) [17]; [20]): 80; Plant response rating, Ryegrass, Italian [18, 19]: 20; Plant response rating, Ryegrass, Italian [18, 20]: 90
